Measured values published in patent publication US20260097029A1, “Tetrahydroquinoline Compounds As Antitumor Agents” (priority 2022, published 2026).
Like-named read-outs stand apart in the source and are kept apart here.

Experiments:
Assay type in all cases: cell-based
U2OS cells [1] = experiment: U2OS cell proliferation (confluency), IncuCyte live cell imaging; settings: for IC50: confluency, read-out: IC50 (concentration of drug that inhibits 50% of cell growth)
Description: (§1) U2OS cells were treated with compounds 1, 2, 14, and 32 at concentrations of 0, 0.625, 1.25, 2.5, 5, 10, 15, 20 and 25 μM. Cell proliferation (confluency) and cytotoxicity (CellTox™ Green confluency) were assessed using the IncuCyte® live cell imaging platform. Cell death was calculated as a percentage of overall confluency, using CellTox™ Green confluency as a percentage of total cell confluence. Cell toxicity measurements were capped at the time point at which cells reached complete confluency. This was to account for cell death due to over-confluency of cells, rather than as a result of compounds' effects. The same experiments were also performed on a list of ALT-positive, telomerase-positive, ALT- and telomerase-positive, and normal cell lines. For the ALT-positive cell lines GM847, SK—N—FI, HuO9, Saos-2, CAL72, IIICF/c, and HS729 were employed. For the telomerase-positive cells HCT116, HeLa, HT1080, SK—N—Be2, and SK—N-AS, and KELLY were used. For the ALT-positive/telomerase-positive and mortal cell strains GM847 hTERT, MRC-5, and IMR-90 were employed.

FANCM-BTR interaction = biological target: T1, FANCM-BTR interaction (Homo sapiens, UniProt Q8IYD8+Q9H9A7); experiment: Co-immunoprecipitation with RMI1 antibody in U2OS cells, western blot; settings: treatment at the IC50 concentration, 72 hours
T1 construct: endogenous in cells; host or cells: U2OS
Description: To determine whether the compounds disrupt the FANCM-BTR interaction, co-immunoprecipitation experiments using the RMI1 antibody were performed in the presence and absence of compounds 1, 2, 14, 32, and the already reported compound PIP-199 treatments as well as the scambled, siFANCM and DMSO. This method provides information indicating the direct binding of proteins and is highly specific and simple to perform. U2OS cells were seeded at 50% confluency in 150 cm^2 flasks (BD Falcon). After 24 hours, cells were treated with scrambled, siFANCM and DMSO (0.3%, determined by the maximal DMSO concentration present in drugs) treatments, and 2, 14, 32, PIP-199 treatments at their IC50 concentrations. After 72 hours, cells were washed once with warm PBS, trypsinised for 5 minutes at 37° C., resuspended in media and counted using a Beckman Coulter cell counter. Cells were collected in pellets in Protein Lobind tubes (Eppendorf) by centrifugation at 200×g at 4° C. and supernatant was discarded. […]
The Dynabeads®-Ab-protein complex was washed three times using 200 μL ice cold Lysis Buffer B for each wash. […] The eluates were analysed by western blot and the data was quantitated using ImageJ software (National Institutes of Health). Eluates were expressed as a percentage of their respective lysates to show relative differences between treatments.

[2] = test system: ALT-positive, telomerase-positive, ALT- and telomerase-positive, and normal cell lines; experiment: Proliferation and cell death across panel of ALT-positive, telomerase-positive, ALT- and telomerase-positive and normal cell lines; settings: for toxicity across cell lines (FIG. 5): 0-25 μM, different cell lines
Description: as §1

U2OS cells [3] = experiment: U2OS cytotoxicity / cell death (CellTox Green confluency), IncuCyte; settings: Homo sapiens, read-out: EC50 (concentration that effectively causes 50% of cell death)
Description: as §1

Row | SMILES | IC50 (U2OS cells [1]; Homo sapiens, U2OS) | IC50 (U2OS cells [1]) | inhibition of U2OS cell viability (U2OS cells [1]; preliminary cell-based assays) | FANCM levels co-immunoprecipitated with RMI1 (FANCM-BTR interaction) | comparison of IC50 and EC50 values across the panel of cell lines ([2]; ALT-positive vs telomerase-positive, ALT/telomerase-positive and mortal cell lines) | EC50 (U2OS cells [3]) | toxicity across cell lines (FIG. 5) [2]
1 | CCN1CCCc2cc(CN(C3CCCC3)S(=O)(=O)c3ccc(NCc4c[nH]cn4)cc3)ccc21 [Compound 32, 4-(((1H-imidazol-4-yl)methyl)amino)-N-cyclopentyl-N-((1-ethyl-1,2,3,4-tetrahydroquinolin-6-yl)methyl)benzenesulfonamide] | 15.5 µM | 15.5 µM | shows inhibition of U2OS cell viability | decrease in FANCM levels | selective induction of ALT-cell death | 1.36 µM | 
2 | CCN1CCCc2cc(CN(C3CCCC3)S(=O)(=O)c3ccc(CCOC)cc3)ccc21 [Compound 14, N-cyclopentyl-N-((1-ethyl-1,2,3,4-tetrahydroquinolin-6-yl)methyl)-4-(2-methoxy-ethyl)benzenesulfonamide] |  |  |  |  |  |  | concentration-dependent toxicity that is partly selective to the ALT cell lines
3 | CCN1CCCc2cc(CN(C3CCCC3)S(=O)(=O)c3cccc([N+](=O)[O-])c3)ccc21 [Compound 1, N-cyclopentyl-N-((1-ethyl-1,2,3,4-tetrahydroquinolin-6-yl)methyl)-3-nitrobenzenesulfon-amide] |  |  |  |  |  |  | concentration-dependent toxicity that is partly selective to the ALT cell lines
